Legend:
Format in all cases: in vivo
[1] = system: barnyardgrass (Echinochloa crus-galli); test: Test B flooded paddy test, plant response rating; conditions: 250 g ai/ha; Flood; scale of 0 to 100 where 0 is no effect and 100 is complete control; 13 to 15 days
Method in brief: (§1)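 Ratings were visual and made relative to untreated controls after 13 to 15 greenhouse days.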

[2] = system: sedge, umbrella (small-flower umbrella sedge, Cyperus difformis); test: Test B flooded paddy test, plant response rating; conditions: 250 g ai/ha; Flood; scale of 0 to 100 where 0 is no effect and 100 is complete control; 13 to 15 days
Method in brief: as §1

rice (Oryza sativa) = test: Test B flooded paddy test, plant response rating; conditions: 250 g ai/ha; Flood; scale of 0 to 100 where 0 is no effect and 100 is complete control; 13 to 15 days
Method in brief: as §1

[3] = system: ducksalad (Heteranthera limosa); test: Test B flooded paddy test, plant response rating; conditions: 250 g ai/ha; Flood; scale of 0 to 100 where 0 is no effect and 100 is complete control; 13 to 15 days
Method in brief: as §1

corn (Zea mays) = test: Test C preemergence, plant response rating; conditions: Preemergence
Text: (§2) Seeds of plant species selected from blackgrass (Alopecurus myosuroides), ryegrass, Italian (Italian ryegrass, Lolium multiflorum), wheat (winter wheat, Triticum aestivum), galium (catchweed bedstraw, Galium aparine), corn (Zea mays), crabgrass, large (large crabgrass, Digitaria sanguinalis), foxtail, giant (giant foxtail, Setaria faberii), johnsongrass (Sorghum halepense), lambsquarters (Chenopodium album), morningglory (Ipomoea coccinea), nutsedge, yellow (yellow nutsedge, Cyperus esculentus), pigweed (Amaranthus retroflexus), ragweed (common ragweed, Ambrosia elatior), soybean (Glycine max), barnyardgrass (Echinochloa crus-galli), oilseed rape (Brassica napus), pigweed, palmer (palmer pigweed, Amaranthus palmeri), waterhemp (common waterhemp, Amaranthus rudis), velvetleaf (Abutilon theophrasti), kochia (Kochia scoparia), surinam grass (Brachiaria decumbens), nightshade (eastern black nightshade, Solanum ptycanthum), wild poinsettia (Euphorbia heterophylla), windgrass (Apera spica-venti), and oat, wild (wild oat Avena fatua), were planted into a blend of loam soil and sand or a silt loam soil and treated preemergence with test chemicals formulated in a non-phytotoxic solvent mixture which included a surfactant.
(§3) At the same time, plants selected from these crop and weed species and also chickweed (common chickweed, Stellaria media), buckwheat, wild (wild buckwheat, Polygonum convolvulus), wild mustard (Sinapis arvensis), field poppy (Papaver rhoeas), field violet (Viola arvensis), geranium, cutleaf (cutleaf geranium, Geranium dissectum), Canada thistle (Cirsium arvense), and speedwell (bird's-eye speedwell, Veronica persica), were planted in pots containing Sunshine Redi-Earth® planting medium comprising spaghnum peat moss, vermiculite, starter nutrients and dolomitic limestone and treated with postemergence applications of test chemicals formulated in the same manner. Plants ranged in height from 2 to 18 cm (1- to 4-leaf stage) for postemergence treatments. Treated plants and controls were maintained in a greenhouse for 13 to 15 d, after which time all species were compared to controls and visually evaluated. Plant response ratings, summarized in Table C, are based on a scale of 0 to 100 where 0 is no effect and 100 is complete control. A dash (-) response means no test result.

soybean (Glycine max) = test: Test C preemergence, plant response rating; conditions: Preemergence
Text: as §2, §3

[4] = system: foxtail, giant (giant foxtail, Setaria faberii); test: Test C preemergence, plant response rating; conditions: Preemergence
Text: as §2, §3

[5] = system: velvetleaf (Abutilon theophrasti); test: Test C preemergence, plant response rating; conditions: Preemergence
Text: as §2, §3

[6] = system: blackgrass (Alopecurus myosuroides); test: Test C preemergence, plant response rating; conditions: Preemergence
Text: as §2, §3

[7] = system: waterhemp (common waterhemp, Amaranthus rudis); test: Test C preemergence, plant response rating; conditions: Preemergence
Text: as §2, §3

[8] = system: nutsedge, yellow (yellow nutsedge, Cyperus esculentus); test: Test C preemergence, plant response rating; conditions: Preemergence
Text: as §2, §3

[9] = system: wheat (winter wheat, Triticum aestivum); test: Test C preemergence, plant response rating; conditions: Preemergence
Text: as §2, §3

[10] = system: ryegrass, Italian (Italian ryegrass, Lolium multiflorum); test: Test C preemergence, plant response rating; conditions: Preemergence
Text: as §2, §3

[11] = system: lambsquarters (Chenopodium album); test: Test C preemergence, plant response rating; conditions: Preemergence
Text: as §2, §3

[12] = system: ragweed (common ragweed, Ambrosia elatior); test: Test C preemergence, plant response rating; conditions: Preemergence
Text: as §2, §3

[13] = system: morningglory (Ipomoea coccinea); test: Test C preemergence, plant response rating; conditions: Preemergence
Text: as §2, §3

[14] = system: crabgrass, large (large crabgrass, Digitaria sanguinalis); test: Test C preemergence, plant response rating; conditions: Preemergence
Text: as §2, §3

[15] = system: oilseed rape (Brassica napus); test: Test C preemergence, plant response rating; conditions: Preemergence
Text: as §2, §3

N#Cc1cccc(Oc2ncc(Cl)cn2)c1C(=O)OCCC(F)(F)F [Compound 30]
5: Plant response rating, Corn (corn (Zea mays); 125 g ai/ha, scale of 0 to 100) | Plant response rating, Foxtail, Giant ([4]; 16 g ai/ha, scale 0 to 100) | Plant response rating, Nutsedge, Yellow ([8]; 125 g ai/ha, scale of 0 to 100) | Plant response rating, Ryegrass, Italian ([10]; 125 g ai/ha, scale of 0 to 100)
35: Plant response rating, Morningglory ([13]; 125 g ai/ha, scale of 0 to 100) | Plant response rating, Crabgrass, Large ([14]; 31 g ai/ha, scale 0 to 100)
65: Plant response rating, Foxtail, Giant ([4]; 62 g ai/ha, scale of 0 to 100)
30: Plant response rating, Foxtail, Giant ([4]; 31 g ai/ha, scale 0 to 100) | Plant response rating, Lambsquarters ([11]; 62 g ai/ha, scale 0 to 100)
40: Plant response rating, Ducksalad [3] | Plant response rating, Velvetleaf ([5]; 125 g ai/ha, scale of 0 to 100)
10: Plant response rating, Soybean (soybean (Glycine max); 62 g ai/ha, scale 0 to 100) | Plant response rating, Velvetleaf ([5]; 62 g ai/ha, scale 0 to 100) | Plant response rating, Wheat ([9]; 125 g ai/ha, scale of 0 to 100) | Plant response rating, Lambsquarters ([11]; 16 g ai/ha, scale 0 to 100) | Plant response rating, Morningglory ([13]; 31 g ai/ha, scale 0 to 100) | Plant response rating, Morningglory ([13]; 62 g ai/ha, scale 0 to 100) | Plant response rating, Oilseed Rape ([15]; 16 g ai/ha, scale 0 to 100)
100: Plant response rating, Waterhemp ([7]; 125 g ai/ha, scale of 0 to 100) | Plant response rating, Waterhemp ([7]; 31 g ai/ha, scale 0 to 100) | Plant response rating, Waterhemp ([7]; 62 g ai/ha, scale 0 to 100) | Plant response rating, Oilseed Rape ([15]; 125 g ai/ha, scale of 0 to 100) | Plant response rating, Oilseed Rape ([15]; 62 g ai/ha, scale 0 to 100)
98: Plant response rating, Crabgrass, Large ([14]; 125 g ai/ha, scale of 0 to 100)
75: Plant response rating, Foxtail, Giant ([4]; 125 g ai/ha, scale of 0 to 100)
60: Plant response rating, Soybean (soybean (Glycine max); 125 g ai/ha, scale of 0 to 100)
55: Plant response rating, Lambsquarters ([11]; 125 g ai/ha, scale of 0 to 100) | Plant response rating, Oilseed Rape ([15]; 31 g ai/ha, scale 0 to 100)
0: Plant response rating, Barnyardgrass [1] | Plant response rating, Sedge, Umbrella [2] | Plant response rating, Rice (rice (Oryza sativa)) | Plant response rating, Corn (corn (Zea mays); 62 g ai/ha, scale of 0 to 100) | Plant response rating, Corn (corn (Zea mays); 16 g ai/ha, scale 0 to 100) | Plant response rating, Corn (corn (Zea mays); 31 g ai/ha, scale 0 to 100) | Plant response rating, Soybean (soybean (Glycine max); 16 g ai/ha, scale 0 to 100) | Plant response rating, Velvetleaf ([5]; 16 g ai/ha, scale 0 to 100) | Plant response rating, Velvetleaf ([5]; 31 g ai/ha, scale 0 to 100) | Plant response rating, Blackgrass ([6]; 62 g ai/ha, scale of 0 to 100) | Plant response rating, Blackgrass ([6]; 125 g ai/ha, scale of 0 to 100) | Plant response rating, Blackgrass ([6]; 16 g ai/ha, scale 0 to 100) | Plant response rating, Blackgrass ([6]; 31 g ai/ha, scale 0 to 100) | Plant response rating, Nutsedge, Yellow ([8]; 16 g ai/ha, scale 0 to 100) | Plant response rating, Nutsedge, Yellow ([8]; 31 g ai/ha, scale 0 to 100) | Plant response rating, Nutsedge, Yellow ([8]; 62 g ai/ha, scale 0 to 100) | Plant response rating, Wheat ([9]; 16 g ai/ha, scale 0 to 100) | Plant response rating, Wheat ([9]; 31 g ai/ha, scale 0 to 100) | Plant response rating, Wheat ([9]; 62 g ai/ha, scale 0 to 100) | Plant response rating, Ryegrass, Italian ([10]; 16 g ai/ha, scale 0 to 100) | Plant response rating, Ryegrass, Italian ([10]; 31 g ai/ha, scale 0 to 100) | Plant response rating, Ryegrass, Italian ([10]; 62 g ai/ha, scale 0 to 100) | Plant response rating, Ragweed ([12]; 125 g ai/ha, scale of 0 to 100) | Plant response rating, Ragweed ([12]; 16 g ai/ha, scale 0 to 100) | Plant response rating, Ragweed ([12]; 31 g ai/ha, scale 0 to 100) | Plant response rating, Ragweed ([12]; 62 g ai/ha, scale 0 to 100) | Plant response rating, Morningglory ([13]; 16 g ai/ha, scale 0 to 100) | Plant response rating, Crabgrass, Large ([14]; 16 g ai/ha, scale 0 to 100)
85: Plant response rating, Waterhemp ([7]; 16 g ai/ha, scale 0 to 100)
80: Plant response rating, Crabgrass, Large ([14]; 62 g ai/ha, scale of 0 to 100)
25: Plant response rating, Lambsquarters ([11]; 31 g ai/ha, scale 0 to 100)
